Values after ≈ are worked out from the molar mass of the structure shown.
How the values were obtained:
A. baumannii [1] = assay: Neutropaenic mouse thigh infection model; type: in vivo; settings: 24 h
Method: An intramuscular inoculation of a bacterial suspension of approximately 10^6 CFU per thigh was used to induce the infection. Treatment started 2 h after infection. […] In the pneumonia model, an intratracheal inoculation of approximately 10^7 CFU per lung was used to induce the infection. Treatment started 2 h after infection. […] Standard of care antibiotic was tested at a single dose in both infection models. GraphPad Prism 8 was used for graphical presentation and to analyse data.

A. baumannii [2] = assay: microbe, parasite or virus in culture; settings: CAMHB; for MIC: MCPs read at 80% inhibition
Method: MIC determinations were performed using the broth microdilution method and in line with CLSI guidelines M07 and M100 (refs. [37],[38]). Bacterial inocula were prepared by diluting a 0.5 McFarland suspension in CAMHB or lysogeny broth (LB) specifically for A. baylyi isolates. […] MIC values of all of the tested antibiotics were read as the lowest compound concentration inhibiting bacterial growth by naked eye or beyond which the OD600 ceased to decrease.

A. baumannii ACC01073 = assay: Neutropaenic mouse lung infection (pneumonia) model; type: in vivo; settings: 120 mg/kg/day q12h
Method: An intramuscular inoculation of a bacterial suspension of approximately 10^6 CFU per thigh was used to induce the infection. Treatment started 2 h after infection. […] Thigh bacterial burden was determined after 24 h of treatment. In the pneumonia model, an intratracheal inoculation of approximately 10^7 CFU per lung was used to induce the infection. Treatment started 2 h after infection. […] Lung bacterial burden was determined after 24 h treatment. Standard of care antibiotic was tested at a single dose in both infection models. GraphPad Prism 8 was used for graphical presentation and to analyse data.

Molecule: C[C@@H](O)[C@H]1C(=O)N2C(C(=O)O)=C(S[C@@H]3CN[C@H](C(=O)N(C)C)C3)[C@H](C)[C@H]12 [MRP]
- log CFU/thigh, average (A. baumannii [1]; A. baumannii ACC00535 (APV00535), neutropenic mice, MERO 100 mg/kg, average of 8 samples): 8.52 log CFU/thigh
- delta 2 hr; Δ log (vs. veh 2hrs) (A. baumannii [1]; A. baumannii ACC00535 (APV00535), neutropenic mice, MERO 100 mg/kg, change of average log CFU/thigh vs start of therapy (2 h)): 2.37

Molecule: CN(C)c1cc(NC(=O)CNC(C)(C)C)c(O)c2c1C[C@H]1C[C@H]3[C@H](N(C)C)C(O)=C(C(N)=O)C(=O)[C@@]3(O)C(O)=C1C2=O [tigecycline, reference compound]
- MIC90 (A. baumannii [2]; Acinetobacter baumannii, 129 clinical isolates): 8 µg/mL (≈ 13.7 µM)
- MIC (A. baumannii [2]; Acinetobacter baumannii, ACC00445): 2 µg/mL (≈ 3.41 µM)
- MIC (A. baumannii [2]; Acinetobacter baumannii, ACC00535): 0.5 µg/mL (≈ 0.854 µM)
- MIC (A. baumannii [2]; Acinetobacter baumannii, ACC01073): 4 µg/mL (≈ 6.83 µM)
- MIC (A. baumannii [2]; Acinetobacter baumannii, ACC01077): 2 µg/mL (≈ 3.41 µM)
- MIC (A. baumannii [2]; Acinetobacter baumannii, ACC01085 / AR0307): 4 µg/mL (≈ 6.83 µM)
- MIC (A. baumannii [2]; Acinetobacter baumannii, ATCC17978, ATCC 17978): 0.5 µg/mL (≈ 0.854 µM)
- MIC (A. baumannii [2]; Acinetobacter baumannii, ATCC19606, ATCC 19606): 1 µg/mL (≈ 1.71 µM)
- MIC (A. baumannii [2]; Acinetobacter baumannii, ATCCBAA747, ATCC BAA-747): 0.25 µg/mL (≈ 0.427 µM)
- MIC (A. baumannii [2]; Acinetobacter baumannii, ROB08701): 1 µg/mL (≈ 1.71 µM)
- MIC (A. baumannii [2]; Acinetobacter baumannii, ROB08702): 4 µg/mL (≈ 6.83 µM)
- MIC (A. baumannii [2]; Acinetobacter baumannii, ROB08703): 16 µg/mL (≈ 27.3 µM)
- MIC (A. baumannii [2]; Acinetobacter baumannii, ROB08704): 0.5 µg/mL (≈ 0.854 µM)
- MIC (A. baumannii [2]; Acinetobacter baumannii, ROB08705): 1 µg/mL (≈ 1.71 µM)
- MIC (A. baumannii [2]; Acinetobacter baumannii, ROB08706): 8 µg/mL (≈ 13.7 µM)
- MIC (A. baumannii [2]; Acinetobacter baumannii, ROB08707): 0.5 µg/mL (≈ 0.854 µM)
- MIC (A. baumannii [2]; Acinetobacter baumannii, ROB08708): 1 µg/mL (≈ 1.71 µM)
- MIC (A. baumannii [2]; Acinetobacter baumannii, ROB08709): 1 µg/mL (≈ 1.71 µM)
- MIC (A. baumannii [2]; Acinetobacter baumannii, ROB08710): 1 µg/mL (≈ 1.71 µM)
- ΔLog CFU/lungs vs A/0h (A. baumannii ACC01073): 0.70
- CFU/lungs, average (A. baumannii ACC01073; n = 6): 4.23E+08
- Log CFU/lungs, average (bacterial load) (A. baumannii ACC01073; n = 6): 8.39

Molecule: colistin [reference compound]
- Bacterial Load (average) (A. baumannii [1]; A. baumannii ACC01085, neutropenic mice, 60 mg/kg/day q8h, summary table, same as average Log CFU/Thigh): 3.39
- MIC (A. baumannii [2]; ACC00445): 0.25 µg/mL
- MIC (A. baumannii [2]; ACC00535): 0.5 µg/mL
- MIC (A. baumannii [2]; ACC01073): >16 µg/mL
- MIC (A. baumannii [2]; ACC01077): 16 µg/mL
- MIC (A. baumannii [2]; ACC01085 / AR0307): 4 µg/mL
- MIC (A. baumannii [2]; ATCC 17978): 0.25 µg/mL
- MIC (A. baumannii [2]; ATCC 19606): 0.5 µg/mL
- MIC (A. baumannii [2]; ATCC BAA-747): 0.5 µg/mL
- MIC (A. baumannii [2]; ROB08701): 1 µg/mL
- MIC (A. baumannii [2]; ROB08702): 2 µg/mL
- MIC (A. baumannii [2]; ROB08703): 0.5 µg/mL
- MIC (A. baumannii [2]; ROB08704): 2 µg/mL
- MIC (A. baumannii [2]; ROB08705): 0.5 µg/mL
- MIC (A. baumannii [2]; ROB08706): 0.25 µg/mL
- MIC (A. baumannii [2]; ROB08707): 2 µg/mL
- MIC (A. baumannii [2]; ROB08708): 0.25 µg/mL
- MIC (A. baumannii [2]; ROB08709): 1 µg/mL
- MIC (A. baumannii [2]; ROB08710): 2 µg/mL
